These results are taken from patent US7407951B2, “Pyrrolobenzodiazepines” (Spirogen Limited, priority 2002, dated 2008).

The test system of one test is Breast MACL MCF7. Kind of test: In vitro clonogenic assay (two-layer agar), breast. It counts as cell-based, human. To be noted: continuous exposure, 8-20 days, colony count. How it is done: (§1) In order to determine the activity of the compounds synthesised, solid human tumour xenografts growing subcutaneously in serial passages in thymus aplastic nude mice (Naval Medical Research Institute, USA nu/nu strain) were removed under sterile condition, mechanically disaggregated and subsequently incubated with an enzyme cocktail consisting of collagenase (41 U/ml, Sigma), DNAse I (125 U/ml, Roche), hyaluronidase (1000 U/ml, Sigma) and dispase II (1.0 U/ml) in RPMI 1640-Medium (Life Technologies) at 37° C. for 30 minutes. Cells were passed through sieves of 200 μm and 50 μm mesh size and washed twice with sterile PBS-buffer. The percentage of viable cells was determined in a Neubauer-hemocytometer using trypan blue exclusion. The cells generated were as follows: • Breast MACL MCF7 • […] • Lung 629L • Melanoma MEXF 462NL
(§2) The clonogenic assay was performed in a 24-well format according to a modified two-layer agar assay introduced by Hamburger, A. W. and Salmon, S. E., Science, 197, […] (1977). The bottom layer consisted of 0.2 ml/well of Iscove's Modified Dulbecco's Medium (supplemented with 20% fetal calf serum and 1% gentamicin) and 0.75% agar. 4×10^4 to 8×10^4 cells were added to 0.2 ml of the same culture medium supplemented with 0.4% agar and plated in 24-multiwell dishes onto the bottom layer. The test compounds were applied by continuous exposure (drug overlay) in 0.2 ml culture medium. Each dish included six control wells containing the vehicle and drug treated groups in triplicate at 6 concentrations. Cultures were incubated at 37° C. and 7.5% CO2 in a humidified atmosphere for 8-20 days and monitored closely for colony growth using an inverted microscope. Within this period, in vitro tumour growth led to the formation of colonies with a diameter of >50 μm. At the time of maximum colony formation, counts were performed with an automatic image analysis system (OMNICOM FAS IV, Biosys GmbH). 24 hours prior to evaluation, vital colnies were stained with a sterile aqueous solution of 2-(4-iodophenyl)-3-(4-nitrophenyl)-5-phenyltetrazolium chloride (1 mg/ml, 100 μl/well).
(§3) The IC50 values of the test compounds were determined by plotting compound concentration versus cell viability.

The subject of another test is renal cell lines. The experiment in a line: NCI hollow fibre assay, renal variation. Conditions: three cell lines; for IP + SC score: combined score, 5 or more referred for xenograft testing; for IP score: intraperitoneal fibres in mice; for IP score / SC score: drug IP QDx4, 2 doses, 2 points per dose giving 50% or greater reduction in viable cell mass; for SC score: subcutaneous fibres in mice. The class given is in vivo, human. An excerpt: (§4) The Biological testing Branch of the Developmental Therapeutics Program of the NCI has adopted a preliminary in vivo screening tool for assessing the potential anticancer activity of compounds identified by the large scale in vitro cell screen. For these assays, human tumour cells are cultivated in polyvinylidene (PVDF) hollow fibres, and a sample of each cell line is implanted into each of two physiologic compartments (intraperitoneal and subcutaneaous) in mice. Each test mouse received a total of 6 fibres (3 intraperitoneally and 3 subcutaneously) representing 3 distinct cancer cell lines. These mice are treated with potential antitumour compounds at each of 2 test doses by the intraperitoneal route using a QD×4 treatment schedule. Vehicle controls consist of 6 mice receiving the compound diluent only. The fibre cultures are collected on the day following the last day of treatment. To assess anticancer effects, the viable cell mass is determined for each of the cell lines using a formazyn dye (MTT) conversion assay. From this, the % T/C can be calculated using the average optical density of compound treated samples divided by the average optical; density of the vehicle controls. In addition, the net increase in cell mass can be determined for each sample, as a sample of fibre cultures are assessed for viable cell mass on the day of implantation into mice. Thus, the cytostatic and cytocidal capacities of the test compound can be assessed.
(§5) Generally, each compound is tested against a minimum of 12 human cancer cell lines. This represents a total of 4 experiments since each experiment contains 3 cell lines. The data are reported as % T/C for each of the 2 compound doses against each of the cell lines with separate values calculated for the intraperitoneal and subcutaneous samples.
(§6) Compounds are selected for further in vivo testing in standard subcutaneous xenograft models on the basis of several hollow fibre assay criteria. These include: (1) a % T/C of 50 or less in 10 of the 48 possible test combinations (12 cell lines×2 sites ×2 compound doses); (2) activity at a distance (intraperitoneal drug/subcutaneous culture) in a minimum of 4 of the 24 possible combinations; and/or (3) a net cell kill of 1 or more of the cell lines in either implant site. To simplify evaluation, a points system has been adopted which allows rapid evaluation of the activity of a given compound. For this, a value of 2 is assigned for each compound dose which results in a 50% or greater reduction in viable cell mass. The intraperitoneal and subcutaneous samples are scored separately so that criteria (1) and (2) can be evaluated. Compounds with a combined IP+SC score of 20, a SC score of 8 or a net cell kill of one or more cell lines are referred for xenograft testing. […] In addition to these criteria, other factors (e.g. unique structure, mechanism of action) may result in referral of a compound for xenograft testing without the compound meeting these criteria.
(§7) Certain compounds of the invention were tested in variations of these assays, to assess their activity against renal and melanoma cell lines. In the melanoma assay, only 6 cell lines are used, and therefore compounds with a combined IP+SC score of 10 or a SC score of 4 are referred for xenograft testing. In the renal assay, only three cell lines are used and therefore compounds with a combined IP+SC score of 5 or a SC score of 2 are referred for xenograft testing.

The subject of the next test is melanoma cell lines. Kind of test: NCI hollow fibre assay, melanoma variation. To be noted: 6 cell lines; for IP + SC score: combined score, 10 or more referred for xenograft testing; for IP score: intraperitoneal fibres in mice; for IP score / SC score: drug IP QDx4, 2 doses, 2 points per dose giving 50% or greater reduction in viable cell mass; for SC score: subcutaneous fibres in mice. It counts as in vivo, human.
Text: as §4, §5, §6, §7

In the next test the test system is Renal RXF 944L. The experiment in a line: In vitro clonogenic assay (two-layer agar), renal. The class given is cell-based, human. Conditions: continuous exposure, 8-20 days, colony count. How it is done: as §1, §2, §3
The next test has as its system Lung 629L. The experiment in a line: In vitro clonogenic assay (two-layer agar), lung. It counts as cell-based, human. To be noted: continuous exposure, 8-20 days, colony count. How it is done: as §1, §2, §3
For the next test, the system named is Melanoma MEXF 462NL. The experiment in a line: In vitro clonogenic assay (two-layer agar), melanoma. It counts as cell-based, human. Conditions: continuous exposure, 8-20 days, colony count. As for the experimental part:
as §1, §2, §3

The subject of test [1] is approximately 60 human tumour cell lines. The experiment in a line: NCI in vitro cytotoxicity screen (SRB assay). Conditions: GI50 in Moles, 48 hour continuous exposure. It counts as cell-based. How it is done:
The National Cancer Institute (NCI), Bethesda, Md. USA has available an in vitro cytotoxicity screen which consists of approximately 60 human tumour cell lines against which compounds are tested at a minimum of five concentrations each differing 10-fold. A 48 hour continuous exposure protocol is used, where cell viability or growth is estimated with an SRB protein assay.
The test compounds were evaluated against approximately 60 human tumour cell lines. The NCI screening procedures were described in detail by Monks and co-workers (Monks, A et al., Journal of the National Cancer Institute, 1991, 83, 757). Briefly, cell suspensions were diluted according to the particular cell type and the expected target cell density (5000-40,000 cells per well based on cell growth characteristics), and added by pipette (100 μL) into 96-well microtitre plates. The cells were allowed a preincubation period of 24 hours at 37° C. for stabilisation. Dilutions at twice the intended test concentration were added at time zero in 100 μL aliquots to the wells. The test compounds were evaluated at five 10-fold dilutions (10^−4, 10^−5, 10^−6, 10^−7 and 10^−[…]). The test compounds were incubated for 48 hours in 5% CO2 atmosphere and 100% humidity. The cells were then assayed using the sulphorhodamine B assay. […]

Take `COc1cc2c(cc1OC)C(=O)N1C=C(c3ccc4ccccc4c3)C[C@H]1C=N2` [Compound 11, (11aS)-1,11a-dihydro-7,8-dimethoxy-2-(2-napthyl)-5H-pyrrolo[2,1-c][1,4]benzodiazepin-5-one]: in the test on Breast MACL MCF7 (Homo sapiens), the IC50 is 0.22 nM.

Consider `COc1cc2c(cc1OC)C(=O)N1C=C(c3ccc(C(C)(C)C)cc3)C[C@H]1C=N2` [Compound 13, (11aS)-1,11a-dihydro-7,8-dimethoxy-2-(4-tert-butylbenzene)-5H-pyrrolo[2,1-c][1,4]benzodiazepin-5-one], for which the IC50 with Breast MACL MCF7 was 0.26 nM. Further, in the test with renal cell lines, the “IP + SC score” value is listed as 6, the IP score turned out to be 4 and the SC score is 2. Further, in the test with melanoma cell lines, the “IP + SC score” value was 6, the IP score is 2 and the SC score is 4.

Regarding `COc1cc2c(cc1OC)C(=O)N1C=C(c3ccc(Cl)cc3)C[C@H]1C=N2` [Compound 15, (11aS)-1,11a-dihydro-7,8-dimethoxy-2-(4-chlorobenzene)-5H-pyrrolo[2,1-c][1,4]benzodiazepin-5-one], the IC50 with Breast MACL MCF7 (Homo sapiens) was 0.15 nM.

Turning to `COc1cc2c(cc1OC)C(=O)N1C=C(c3ccc(F)cc3)C[C@H]1C=N2` [Compound 17, (11aS)-1,11a-dihydro-7,8-dimethoxy-2-(4-fluorobenzene)-5H-pyrrolo[2,1-c][1,4]benzodiazepin-5-one], half-maximal inhibition in the test with Renal RXF 944L (Homo sapiens) (IC50) required 0.17 nM.

Turning to `COc1cc2c(cc1OC)C(=O)N1C=C(c3ccccc3C)C[C@H]1C=N2` [Compound 19, (11aS)-1,11a-dihydro-7,8-dimethoxy-2-(2-methylbenzene)-5H-pyrrolo[2,1-c][1,4]benzodiazepin-5-one], the midpoint of inhibition in the test with Breast MACL MCF7 (Homo sapiens), the IC50, lay at 0.35 nM. Moreover, the IC50 in the test with Lung 629L (Homo sapiens) came to 1 nM. Moreover, in the test with melanoma cell lines, the “IP + SC score” value turned out to be 8, the IP score was 4 and the SC score is listed as 4.

With `CCc1ccc(C2=CN3C(=O)c4cc(OC)c(OC)cc4N=C[C@@H]3C2)cc1` [Compound 21, (11aS)-1,11a-dihydro-7,8-dimethoxy-2-(4-ethylbenzene)-5H-pyrrolo[2,1-c][1,4]benzodiazepin-5-one], the IC50 was below 0.1 nM in the test on Breast MACL MCF7, below 0.1 nM in the test with Renal RXF 944L, 0.36 nM in the test on Lung 629L and below 0.1 nM in the test on Melanoma MEXF 462NL. The “IP + SC score” value in the test on melanoma cell lines stood at 10. The IP score with melanoma cell lines was determined as 10. In addition, the SC score in the test with melanoma cell lines turned out to be 0.

On to `COc1cc2c(cc1OC)C(=O)N1C=C(c3cccs3)C[C@H]1C=N2` [Compound 23, (11aS)-1,11a-dihydro-7,8-dimethoxy-2-(2-thiophene)-5H-pyrrolo[2,1-c][1,4]benzodiazepin-5-one], for which the IC50 in the test on Breast MACL MCF7 (Homo sapiens) was determined as 0.35 nM. Further, in test [1], the “MG_MID (average log GI50 across all cell lines tested)” value is recorded as −6.34.

For the molecule `COc1cc2c(cc1OC)C(=O)N1C=C(c3ccco3)C[C@H]1C=N2` [Compound 25, (11aS)-1,11a-dihydro-7,8-dimethoxy-2-(2-furan)-5H-pyrrolo[2,1-c][1,4]benzodiazepin-5-one], the “MG_MID (average log GI50 across all cell lines tested)” value in test [1] is reported as −7.18.

In the case of `COc1cc2c(cc1OC)C(=O)N1C=C(c3c(C)cccc3C)C[C@H]1C=N2` [Compound 27, (11aS)-1,11a-dihydro-7,8-dimethoxy-2-(2,6-dimethylbenzene)-5H-pyrrolo[2,1-c][1,4]benzodiazepin-5-one], in the test with renal cell lines, the “IP + SC score” value is 8, the IP score is listed as 4 and the SC score is given as 4.

Regarding `COc1cc2c(cc1OC)C(=O)N1C=C(c3ccccc3)C[C@H]1C=N2` [Compound C1, reference compound], the IC50 worked out at 19.3 nM with Breast MACL MCF7 (Homo sapiens), 20.5 nM in the test on Renal RXF 944L (Homo sapiens), 44.5 nM in the test on Lung 629L (Homo sapiens) and 40 nM with Melanoma MEXF 462NL (Homo sapiens). In addition, the results for the “IP + SC score” value in the test on renal cell lines and in the test on melanoma cell lines were 0 and 4, respectively. The IP score in the test on renal cell lines came out at 0; in the test with melanoma cell lines, 4. Further, the SC score in the test with renal cell lines and in the test with melanoma cell lines was 0 throughout.

Regarding `COc1ccc(C2=CN3C(=O)c4cc(OC)c(OC)cc4N=C[C@@H]3C2)cc1` [Compound C2], the IC50 worked out at 1.96 nM in the test with Breast MACL MCF7 (Homo sapiens), 1.5 nM in the test on Renal RXF 944L (Homo sapiens), 5 nM in the test with Lung 629L (Homo sapiens) and 2.85 nM in the test on Melanoma MEXF 462NL (Homo sapiens).

`COc1cc2c(cc1OC)C(=O)N1C=C(c3ccc(C)cc3)C[C@H]1C=N2` [Compound C3, reference compound]: the 50% inhibitory concentration (IC50) with Breast MACL MCF7 (Homo sapiens) turned out to be 1.59 nM; in the test on Renal RXF 944L (Homo sapiens), 0.89 nM; in the test with Lung 629L (Homo sapiens) it was 8 nM; with Melanoma MEXF 462NL (Homo sapiens), 2 nM. Besides, the “IP + SC score” value in the test on renal cell lines and in the test on melanoma cell lines was 2 throughout. Further, the IP score in the test on renal cell lines worked out at 2; in the test on melanoma cell lines, 0. In addition, the figures for the SC score with renal cell lines and with melanoma cell lines were 0 and 2, respectively.
